# Experimental data: publication PMC7689089, “Regorafenib combined with PD1 blockade increases CD8 T-cell infiltration by inducing CXCL10 expression in hepatocellular carcinoma” (Journal for Immunotherapy of Cancer, 2020)
# Columns and labels:
# RIL-175 orthotopic HCC = assay: Survival, orthotopic RIL-175 HCC in Rag1–/–/C57Bl/6 mice; assay type: in vivo, mouse; details: regorafenib 10 mg/kg; Rag1–/– mice lacking functional T cells
# Experimental: Regorafenib was provided by Bayer and administered by oral gavage daily at a dose of 5, 10 and 20 mg/kg in 34% 1,2-propandiol (Sigma-Aldrich), 34% PEG400 (Sigma-Aldrich), 12% pluronic F68 (Thermo Fischer Scientific, Waltham, Massachusetts, USA), and 20% water, as per manufacturer’s recommendation. Mouse anti-PD1 antibody (clone RMP-014) was purchased from BioXcell (Lebanon, New Hampshire, USA) and Mouse IgG isotype control was purchased from Thermo Fischer Scientific. The STAT3 inhibitor LLL12 was purchased from BioVision (Milpitas, California, USA). Antimouse PD1 antibody or IgG (control) were given intraperitoneally at a dose of 10 mg/kg thrice weekly, as described.[11] Daily gavage of vehicle and intraperitoneal injection of 10 mg/kg of isotype-matched IgG were given as control treatments for anti-PD1 antibody. For the survival studies, moribund status was used as the end point and moribund was defined as symptoms of prolonged distress, >15% of weight loss compared with the starting date, body condition score >2 and tumor size of >24 mm in diameter.
# All statistical analyzes were performed using Stata software, V.14.1 (StataCorp, College Station, Texas, USA). […] Quantitative variables were compared using Student’s t-test. […] Statistical analyses in the survival experiments were performed by Cox proportional hazard model and HR and 95% CIs were calculated as well.
# RIL-175 cells = assay: CXCL10 secretion by RIL-175 cells in vitro (ELISA); assay type: cell-based, mouse; details: 36 hours
# Excerpt: To determine if CXCL10 was produced by murine HCC cells in response to regorafenib treatment, we next cultured RIL-175 cells with various concentration of regorafenib in vitro and measured the CXCL10 levels by ELISA. […]
# treated by regorafenib as standard of care (HCC) (using the DFCI Protocol No.: 13-416 “Collection of Specimens and Clinical Data for Patients with Known or Suspected Solid Tumors”, PI, Dr. Juric, MGH) or in a phase I clinical trial of regorafenib monotherapy in acute myeloid leukemia (AML) patients (ClinicalTrials.gov Identifier: NCT03042689, PI, Hobbs, MGH). Both protocols have been IRB approved, and written consent was obtained from all patients.
# Protein analyses. Western blotting was performed using antibodies against Stat1 (D1K9Y), phosphorylated (p)-Stat1 (Tyr701) (D4A7), Stat3 (79D7), p-Stat3 (Ser727) (Cell Signaling Technology, Danvers, MA), and IFN-γ (EPR1108) (Abcam, Cambridge, MA). Multiplexed protein array analysis was performed for protein extracts from whole tumors, using V-PLEX Proinflammatory Panel 1 Mouse Kit, V-PLEX Cytokine Panel 1 Mouse Kit and V-PLEX […] (Meso-Scale Discovery, Rockville, MD). For cell supernatant collection, 1x10^6 of RIL-175 cells were cultured in DMEM medium with 2% FBS and regorafenib was given in a various dose.
# Supernatant was collected after 36hr of incubation and multiplexed protein array analysis was done using the same kit above.
# Flow cytometry analysis. Tumor tissues were extracted from the mice, weighted and minced with a scalpel. Hank’s buffered salt solution (HBSS) with 1.5mg/ml of collagenase and hyaluronidase was added to the minced tissues and incubated for 30 min at 37°C. After incubation, digested tissues were passed through the 70μm cell strainer and washed with PBS with 2% BSA. After preparation, cells were suspended in 2ml of PBS with 2% BSA, then counted using a cell counting plate (Kova slide) (if the final concentration of cell exceeded 10^7 cells/ml, a dilution factor was applied). One hundred microliters of this suspension were used per subsequent flow cytometry staining. […]
# HCA1 cells = assay: CXCL10 secretion by HCA1 cells in vitro; assay type: cell-based, mouse; details: 36hr; compared with increase in RIL-175 cells
smiles,measurement,setting,value
CNC(=O)c1cc(Oc2ccc(NC(=O)Nc3ccc(Cl)c(C(F)(F)F)c3)c(F)c2)ccn1 [regorafenib],Survival,RIL-175 orthotopic HCC,no significant benefit
same,Regorafenib concentration at peak CXCL10 secretion,RIL-175 cells,1 µM
same,Level of CXCL10 secreted by RIL-175 cells,"RIL-175 cells; various concentrations, n=6",significantly increased
same,Level of CXCL10 secreted by HCA1 cells,HCA1 cells,to a lesser extent
